This assay deals with T1, hCX3CR1 (Homo sapiens, UniProt P49238).
T1 construct: expressed in transfected cells; host or cells: human embryonic kidney suspension (HEKS) 293 cells stably expressing chimeric G-protein Gαqi5; membranes prepared from them
T1 sequence (P49238 1-355): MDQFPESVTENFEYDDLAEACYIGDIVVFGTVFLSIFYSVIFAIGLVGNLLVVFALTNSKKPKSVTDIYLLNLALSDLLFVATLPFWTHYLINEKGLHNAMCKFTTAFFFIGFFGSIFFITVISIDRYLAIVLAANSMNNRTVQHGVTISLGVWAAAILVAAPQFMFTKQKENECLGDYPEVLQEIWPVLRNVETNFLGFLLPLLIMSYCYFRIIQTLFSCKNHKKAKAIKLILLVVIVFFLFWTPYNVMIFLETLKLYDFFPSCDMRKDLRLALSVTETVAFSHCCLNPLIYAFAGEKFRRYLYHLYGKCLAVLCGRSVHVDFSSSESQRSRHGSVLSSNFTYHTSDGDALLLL
Nature of the assay: in vitro hCX3CR1 binding assay ([125I]-fractalkine competition binding, membranes). The following applies: final compounds. From the text: Recombinant human fractalkine (hCX3CL1) and recombinant human interleukin-8 (IL-8 or hCXCL8) were purchased from PeproTech Inc., UK. Recombinant [^125I]-fractalkine (human) and [^125I]hIL-8 with the specific activity of 2200 Ci/mmol, was purchased from NEN® Life Science Products, Inc., UK. Fluo-4-AM was purchased from Molecular Probes, US. All other chemicals were of analytical grade.
The complete human CX3CR1 cDNA (GenBank accession number U20350) was extracted from human brain mRNA (Superscript, Life Technologies) and ligated into pCR-Blunt II TOPO vector (InVitrogen). The insert corresponding hCX3CR1 was isolated and further subcloned into pcDNA3.1zeo. Plasmid DNA was prepared using Plasmid Midi Kit (Qiagen). Using Superfect Transfection Reagent (Qiagen) according to the manufacturer's protocol the expression plasmid for hCX3CR1 was then introduced into human embryonic kidney suspension (HEKS) 293 cell line containing a vector for stable expression of a chimeric G-protein Gαqi5. A stable clone was generated utilizing zeocin (500 μg/mL) and hygromycin (100 μg/mL) selection. For further applications the cells were maintained in Dulbecco's modified Eagle's medium/Ham's nutrient mix F12 (DMEM/F12) containing pyridoxine and supplemented with 10% (v/v) fetal bovine serum, 2 mM L-glutamine, 100 U/ml penicillin and […] streptomycin, 250 μg/mL zeocin and 100 μg/mL hygromycin.
Cells are grown at 37° C. and 5% CO2 and harvested at 60-80% confluence in buffer containing 10 mM Tris-HCl pH 7.4, 5 mM EDTA, 0.1 mg/mL bacitracin. The cells are centrifuged at 300×g for 10 min and the pellet is resuspended in harvesting buffer (10 mM Tris-HCl, pH 7.4, 5 mM ethylenediaminetetra-aceticacid (EDTA) and 0.1 mg/mL bacitracin), pooled and homogenised using a Dounce homogeniser. The homogenate is centrifuged in 48000×g for 10 min and resuspended in harvesting buffer using Ultra-Turrax T8. Membrane aliquots are stored at −80° C. Protein concentration was determined in microtiter plates as described by Harrington (1990, Anal. Biochem. 186, 285-287).
Competition binding studies of [^125I]fraktalkine were performed in 2 mL 96-deep-well plates (Beckman, Germany) in a total volume of 1000 μL/well. Each well contained […] [^125I]-fractalkine and membrane equivalent to receptor concentration of 1 μM in assay buffer (50 mM Hepes-KOH, pH 7.4, 10 mM MgCl2, 1 mM EDTA, 0.1% (w/v) gelatine). Ten concentrations (2 points/log unit) of the test compounds were pre-dissolved in DMSO and added to reach a final concentration of 1% (v/v) DMSO. The assay was initiated with the addition of membranes and incubated at 25° C. for 24 h. The reactions were stopped by rapid filtration through Whatman GF/B glass fiber filters pretreated with 0.3% polyethylimine and subsequent washing with ice-cold buffer (10 mM Hepes-KOH pH 7.4, 500 mM NaCl) using a Brandel receptor binding harvester. Scintillation cocktail was added and radioactivity was determined in a Packard 2500TR liquid scintillation counter. (Perkin Elmer, USA)
With `CC(C)C[C@H](CO)Nc1nc(S[C@@H](C)c2ccncc2F)nc2[nH]c(=O)sc12` [Example 8b, 5-{[(1S)-1-(3-Fluoropyridin-4-yl)ethyl]thio}-7-{[(1R)-1-(hydroxymethyl)-3-methylbutyl]amino}[1,3]thiazolo[4,5-d]pyrimidin-2(3H)-one], the affinity corresponds to a Ki of 1.5 nM. As for `CCC[C@H](CO)Nc1nc(S[C@@H](C)c2ccc(Cl)nc2)nc2[nH]c(=O)sc12` [Example 6, 5-{[(1S)-1-(6-Chloropyridin-3-yl)ethyl]thio}-7-{[(1R)-1-(hydroxymethyl)butyl]amino}[1,3]thiazolo[4,5-d]pyrimidin-2(3H)-one], the figure is 21.4 nM. On to `CC(C)C[C@H](CO)Nc1nc(S[C@H](C)c2ccncc2F)nc2[nH]c(=O)sc12` [Example 8a, 5-{[(1R)-1-(3-Fluoropyridin-4-yl)ethyl]thio}-7-{[(1R)-1-(hydroxymethyl)-3-methylbutyl]amino}[1,3]thiazolo[4,5-d]pyrimidin-2(3H)-one], for which affinity was put at a Ki of 97 nM. As for `CC(C)C[C@H](CO)Nc1nc(S[C@@H](C)c2ncccc2F)nc2[nH]c(=O)sc12` [Example 4, 5-{[(1S)-1-(3-Fluoropyridin-2-yl)ethyl]thio}-7-{[(1R)-1-(hydroxymethyl)-3-methylbutyl]amino}[1,3]thiazolo[4,5-d]pyrimidin-2(3H)-one], the figure is 18 nM; as for `CC(C)C[C@H](CO)Nc1nc(S[C@@H](C)c2ccc(Cl)cn2)nc2[nH]c(=O)sc12` [Example 1, 5-{[(1S)-1-(5-Chloropyridin-2-yl)ethyl]thio}-7-{[(1R)-1-(hydroxymethyl)-3-methylbutyl]amino}[1,3]thiazolo[4,5-d]pyrimidin-2(3H)-one], 5.8 nM; as for `CC(C)C[C@H](CO)Nc1nc(S[C@@H](C)c2ccc(F)cn2)nc2[nH]c(=O)sc12` [Example 2, 5-{[(1S)-1-(5-Fluoropyridin-2-yl)ethyl]thio}-7-{[(1R)-1-(hydroxymethyl)-3-methylbutyl]amino}[1,3]thiazolo[4,5-d]pyrimidin-2(3H)-one], 20 nM.

`CCC[C@H](CO)N(C)c1nc(S[C@@H](C)c2ccc(Cl)nc2)nc2[nH]c(=O)sc12` [Example 7, 5-{[(1S)-1-(6-Chloropyridin-3-yl)ethyl]thio}-7-[[(1R)-1-(hydroxymethyl)butyl](methyl)amino][1,3]thiazolo[4,5-d]pyrimidin-2(3H)-one] came in with a Ki of 440 nM.

One may read the Ki as a dissociation constant, usually derived from enzyme kinetics or from competition with a known ligand. Lower therefore signals tighter binding.

For the origin of these results see patent US7960395B2, “5,7-disubstituted thiazolo[4,5-d]pyrimidines for the selective inhibition of chemokine receptors” (AstraZeneca AB, priority 2006, dated 2011).
